Measurements published in the NIST ThermoML archive (doi:10.1021/acs.jced.8b01135).

Experiment: xn = mol fraction of the nth substance listed
Settings: 102 kPa, Liquid; for speed of sound: Frequency=3 MHz, Single path-length method; for mass density: Vibrating tube method; for viscosity: Concentric cylinders viscometry

CCCCCCC1CCCCC1 [hexylcyclohexane] + CCCCCCCCCCCC
Settings | mass density, 288.15 K [kg/m3] | mass density, 293.15 K [kg/m3] | mass density, 298.15 K [kg/m3] | mass density, 303.15 K [kg/m3] | speed of sound, 288.15 K [m/s] | speed of sound, 293.15 K [m/s] | speed of sound, 298.15 K [m/s] | speed of sound, 303.15 K [m/s] | viscosity, 293.15 K [mPa·s] | viscosity, 303.15 K [mPa·s]
x1 = 0.1002 | – | – | – | – | – | – | – | – | 1.53 | 1.3
x1 = 0.1009 | 757.85 | 754.24 | 750.61 | 746.99 | 1322.7 | 1303.2 | 1283.8 | 1264.6 | – | –
x1 = 0.1998 | 763.33 | 759.72 | 756.11 | 752.5 | 1328.2 | 1308.8 | 1289.4 | 1270.2 | – | –
x1 = 0.201 | – | – | – | – | – | – | – | – | 1.58 | 1.34
x1 = 0.3 | – | – | – | – | – | – | – | – | 1.64 | 1.38
x1 = 0.3001 | 768.99 | 765.39 | 761.78 | 758.17 | 1334.2 | 1314.7 | 1295.3 | 1276.1 | – | –
x1 = 0.3998 | – | – | – | – | – | – | – | – | 1.7 | 1.43
x1 = 0.4001 | 774.72 | 771.13 | 767.53 | 763.92 | 1340.2 | 1320.7 | 1301.3 | 1282.1 | – | –
x1 = 0.5002 | – | – | – | – | – | – | – | – | 1.76 | 1.48
x1 = 0.5004 | 780.57 | 776.99 | 773.39 | 769.79 | 1346.3 | 1326.9 | 1307.5 | 1288.3 | – | –
x1 = 0.5996 | 786.46 | 782.88 | 779.29 | – | 1352.5 | 1333.2 | 1313.8 | 1294.6 | – | –
x1 = 0.5999 | – | – | – | – | – | – | – | – | 1.83 | 1.54
x1 = 0.6998 | – | – | – | – | – | – | – | – | 1.91 | 1.6
x1 = 0.7005 | 792.54 | 788.97 | 785.38 | – | 1359.2 | 1339.8 | 1320.4 | 1301.2 | – | –
x1 = 0.7996 | 798.63 | 795.06 | 791.48 | – | 1365.9 | 1346.5 | 1327.1 | 1307.8 | – | –
x1 = 0.8001 | – | – | – | – | – | – | – | – | 1.99 | 1.66
x1 = 0.8997 | 804.88 | 801.31 | 797.74 | – | 1373 | 1353.4 | 1334 | 1314.7 | – | –
x1 = 0.8998 | – | – | – | – | – | – | – | – | 2.08 | 1.74
x1 = 1 | 811.34 | 807.76 | 804.19 | – | 1380.4 | 1360.9 | 1341.4 | 1322.1 | 2.19 | 1.79
